According to patent publication US9328374B2, “Selective culture medium and method for detecting carbapenem-resistant bacteria in a test sample” (Institut National de la Sante et de la Recherche Medicale …, priority 2011, dated 2016):

Experiments:
E. cloacae = assay: MIC of imipenem, ertapenem and meropenem; format: cell-based, Enterobacter cloacae
enterobacterial isolates = assay: MIC of imipenem, ertapenem and meropenem (groups of isolates, other species); format: cell-based, Enterobacteriaceae
C. koseri = assay: MIC of imipenem, ertapenem and meropenem; format: cell-based
S. typhimurium = assay: MIC of imipenem, ertapenem and meropenem; format: cell-based
P. rettgeri = assay: MIC of imipenem, ertapenem and meropenem; format: cell-based, Providencia rettgeri
E. coli = assay: MIC of imipenem, ertapenem and meropenem; format: cell-based, Escherichia coli

Measured: MIC

C[C@@H](O)[C@H]1C(=O)N2C(C(=O)O)=C(S[C@@H]3CN[C@H](C(=O)N(C)C)C3)[C@H](C)[C@H]12 [MEM, meropenem]
0.094 µg/mL: E. cloacae; E. cloacae 1019, TEM-1, non-carbapenemase producer, overexpressed AmpC | E. cloacae; E. cloacae 10111 (TEM-1 + CTX-M-15) | E. cloacae; E. cloacae 10111, TEM-1 + CTX-M-15, non-carbapenemase producer, overexpressed AmpC | E. cloacae; strain E. cloacae 10111, TEM-1 + CTX-M-15, non-carbapenemase producer
0.25 µg/mL: E. cloacae; E. cloacae CON, Overexpressed AmpC, non-carbapenemase producer
0.12 µg/mL: E. cloacae; E. cloacae ARF (overexpressed AmpC) | E. cloacae; E. cloacae ARF, Overexpressed AmpC, non-carbapenemase producer | E. cloacae; E. cloacae AZA (overexpressed AmpC) | E. cloacae; E. cloacae AZA, Overexpressed AmpC, non-carbapenemase producer | E. cloacae; E. cloacae BLA (overexpressed AmpC) | E. cloacae; E. cloacae BLA, Overexpressed AmpC, non-carbapenemase producer | E. cloacae; E. cloacae CLO (CTX-M-15) | E. cloacae; E. cloacae CLO, CTX-M-15, non-carbapenemase producer | E. cloacae; E. cloacae CON (overexpressed AmpC) | E. cloacae; E. cloacae CVB (VEB-1) | E. cloacae; E. cloacae CVB, VEB-1, non-carbapenemase producer | E. cloacae; strain E. cloacae BLA, Overexpressed AmpC, non-carbapenemase producer | E. cloacae; strain E. cloacae CLO, CTX-M-15, non-carbapenemase producer | E. cloacae; strain E. cloacae CON, Overexpressed AmpC, non-carbapenemase producer | E. cloacae; strain E. cloacae CVB, VEB-1, non-carbapenemase producer
0.064 µg/mL: E. cloacae; E. cloacae 1072, TEM-1 + OXA-1, non-carbapenemase producer, overexpressed AmpC
1.5 µg/mL: E. cloacae; E. cloacae 501, OXA-48 + TEM-1 + CTX-M-15 | E. cloacae; E. cloacae HPTU (KPC-2 + TEM-1 + SHV-11) | E. cloacae; E. cloacae HPTU, KPC-2 + TEM-1 + SHV-11 | E. cloacae; strain E. cloacae HPTU, KPC-2 + TEM-1 + SHV-11
0.016 µg/mL: E. cloacae; E. cloacae 1012, TEM-1 + SHV-12, non-carbapenemase producer | E. cloacae; E. cloacae 1027, TEM-1 + CTX-M-15, non-carbapenemase producer | E. coli; E. coli 1008 (TEM-1 + CTX-M-1) | E. coli; E. coli 1008, CTX-M-1 + TEM-1, non-carbapenemase producer | E. coli; E. coli 1020, CTX-M-1 + TEM-1, non-carbapenemase producer | E. coli; E. coli 1023, CTX-M-2 + TEM-1, non-carbapenemase producer | E. coli; E. coli 1033, CTX-M-15, non-carbapenemase producer | E. coli; E. coli 1034 (TEM-1 + SHV-38) | E. coli; E. coli 1034, TEM-1 + SHV-38, non-carbapenemase producer | E. coli; E. coli 1048 (TEM-1 + SHV-2a) | E. coli; E. coli 1048, TEM-1 + SHV-2a, non-carbapenemase producer | E. coli; E. coli 1082 (TEM-1) | E. coli; E. coli 1082, TEM-1, non-carbapenemase producer | E. coli; E. coli 10121 (CTX-M-2) | E. coli; E. coli 10121, CTX-M-2, non-carbapenemase producer | E. coli; E. coli 10122, CTX-M-1 + TEM-1, non-carbapenemase producer
0.008 µg/mL: E. coli; E. coli 6252, (wild type), non-carbapenemase producer
>32 µg/mL: E. cloacae; E. cloacae 1008029, VIM-1+ CTX-M-3 | E. cloacae; E. cloacae 1008079, IMP-1 | enterobacterial isolates; S. marcescens 0911033, IMP-1 | enterobacterial isolates; S. marcescens 1008091, VIM-1+ CTX-M-15 | enterobacterial isolates; S. marcescens C7052, KPC-2 + TEM-1 + SHV-12 | enterobacterial isolates; S. marcescens D6403, KPC-2 + TEM-1
1 µg/mL: E. cloacae; E. cloacae CFVL, KPC-2 + TEM-3 | E. cloacae; E. cloacae TWA, IMP-8 | E. coli; E. coli 0404018, VIM-1+ CMY-6
0.012 µg/mL: E. cloacae; E. cloacae 7725, (wild type), non-carbapenemase producer | E. coli; E. coli 6367 (wild type) | E. coli; E. coli 6367, (wild type), non-carbapenemase producer
0.38 µg/mL: C. koseri; C. koseri ROU, OXA-48 | C. koseri; C. koseri VER (OXA-48) | C. koseri; C. koseri VER, OXA-48 | C. koseri; strain C. koseri VER, OXA-48
2 µg/mL: E. cloacae; E. cloacae (KPC-2) | E. cloacae; E. cloacae IR38 (NDM-1 + CTX-M-15) | E. cloacae; E. cloacae IR38, NDM-1 + CTX-M-15 | P. rettgeri; P. rettgeri RAP (OXA-181 + OXA-1) | P. rettgeri; P. rettgeri RAP, OXA-181 + OXA-1 | P. rettgeri; strain P. rettgeri RAP, OXA-181 + OXA-1
16 µg/mL: E. cloacae; E. cloacae HMG, KPC-2 + TEM-1
0.032 µg/mL: E. cloacae; E. cloacae 5434 (wild type) | E. cloacae; E. cloacae 5434, (wild type), non-carbapenemase producer | E. cloacae; E. cloacae 7746, (wild type), non-carbapenemase producer | S. typhimurium; S. typhimurium 1081 (CTX-M-1) | S. typhimurium; S. typhimurium 1081, CTX-M-1, non-carbapenemase producer | S. typhimurium; strain S. typhimurium 1081, CTX-M-1, non-carbapenemase producer
4 µg/mL: E. cloacae; E. cloacae 1008187, IMP-1 + CTX-M-15 | E. coli; E. coli 1008077, VIM-1+ TEM-1 + CTX-M-15
0.5 µg/mL: E. cloacae; E. cloacae BEU, OXA-48 + TEM-1 + CTX-M-15 + SHV-12 | E. cloacae; E. cloacae KAR, VIM-1+ SHV-70 | E. cloacae; E. cloacae TAW (IMP-8 + SHV-12) | E. cloacae; E. cloacae TAW, IMP-8 + SHV-12 | E. cloacae; E. cloacae TUR (OXA-48 + SHV-5) | E. cloacae; E. cloacae TUR, OXA-48 + SHV-5 | E. cloacae; strain E. cloacae TAW, IMP-8 + SHV-12 | E. cloacae; strain E. cloacae TUR, OXA-48 + SHV-5
0.023 µg/mL: E. coli; E. coli 1092 (OXA-1) | E. coli; E. coli 1092, OXA-1, non-carbapenemase producer
